Measured values published in PubChem BioAssay (NCI).
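Results reflect a 48-hour exposure of cells in 96-well plates to compound at five concentrations. Abbreviation: GI50, concentration required for 50% inhibition of growth. Definition used: TGI = concentration required for complete inhibition of growth.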

Assays:
Assay in all cases: growth of human tumour cells (NCI), 48 h
[1] = test system: DLD-1 colon
[2] = test system: KM20L2 colon
[3] = test system: HT29 colon
[4] = test system: A549 NSCLC
[5] = test system: EKVX NSCLC
[6] = test system: HOP-18 NSCLC
[7] = test system: DMS 273 small cell lung
[8] = test system: MOLT-4 leukemia
[9] = test system: OVCAR-5 ovarian
[10] = test system: KM12 colon
[11] = test system: OVCAR-4 ovarian
[12] = test system: HL-60(TB) leukemia
[13] = test system: COLO 205 colon
[14] = test system: TK-10 renal
[15] = test system: CAKI-1 renal
[16] = test system: SW-620 colon
[17] = test system: SK-MEL-28 melanoma
[18] = test system: NCI-H460 lung
[19] = test system: LXFL 529 NSCLC
[20] = test system: SNB-19 CNS
[21] = test system: SK-OV-3 ovarian
[22] = test system: UACC-257 melanoma
[23] = test system: DMS 114 small cell lung
[24] = test system: OVCAR-8 ovarian
[25] = test system: K-562 leukemia
[26] = test system: U251 CNS
[27] = test system: CCRF-CEM leukemia
[28] = test system: UACC-62 melanoma
[29] = test system: SNB-78 CNS
[30] = test system: HOP-62 NSCLC
[31] = test system: 786-0 renal
[32] = test system: HCT-116 colon
[33] = test system: M19-MEL melanoma
[34] = test system: HCT-15 colon
[35] = test system: SF-295 CNS
[36] = test system: IGROV1 ovarian
[37] = test system: RPMI-8226 leukemia
[38] = test system: RXF 393 renal
[39] = test system: XF 498 CNS
[40] = test system: HCC-2998 colon
[41] = test system: NCI-H226 lung
[42] = test system: SNB-75 CNS
[43] = test system: SN12C renal
[44] = test system: LOX IMVI melanoma
[45] = test system: SK-MEL-5 melanoma
[46] = test system: M14 melanoma
[47] = test system: HOP-92 NSCLC
[48] = test system: ACHN renal
[49] = test system: RXF-631 renal
[50] = test system: MALME-3M melanoma
[51] = test system: UO-31 renal
[52] = test system: SK-MEL-2 melanoma
[53] = test system: OVCAR-3 ovarian
[54] = test system: SF-268 CNS
[55] = test system: SF-539 CNS
[56] = test system: NCI-H522 lung
[57] = test system: NCI-H23 lung

C[Si](C)(C)CC(N)=O
TGI [1]: > 100 µM | TGI [2]: > 100 µM | TGI [3]: > 100 µM | TGI [4]: > 100 µM | TGI [5]: > 100 µM | TGI [6]: > 100 µM | TGI [7]: > 100 µM | TGI [8]: > 100 µM | TGI [9]: > 100 µM | TGI [10]: > 100 µM | TGI [11]: > 100 µM | TGI [12]: > 100 µM | TGI [13]: > 100 µM | TGI [14]: > 100 µM | TGI [15]: > 100 µM | TGI [16]: > 100 µM | TGI [17]: > 100 µM | TGI [18]: > 100 µM | TGI [19]: > 100 µM | TGI [20]: > 100 µM | TGI [21]: > 100 µM | TGI [22]: > 100 µM | TGI [23]: > 100 µM | TGI [24]: > 100 µM | TGI [25]: > 100 µM | TGI [26]: > 100 µM | TGI [27]: > 100 µM | TGI [28]: > 100 µM | TGI [29]: > 100 µM | TGI [30]: > 100 µM | TGI [31]: > 100 µM | TGI [32]: > 100 µM | TGI [33]: > 100 µM | TGI [34]: > 100 µM | TGI [35]: > 100 µM | TGI [36]: > 100 µM | TGI [37]: > 100 µM | TGI [38]: > 100 µM | TGI [39]: > 100 µM | TGI [40]: > 100 µM | TGI [41]: > 100 µM | TGI [42]: > 100 µM | TGI [43]: > 100 µM | TGI [44]: > 100 µM | TGI [45]: > 100 µM | TGI [46]: > 100 µM | TGI [47]: > 100 µM | TGI [48]: > 100 µM | TGI [49]: > 100 µM | TGI [50]: > 100 µM | TGI [51]: > 100 µM | TGI [52]: > 100 µM | TGI [53]: > 100 µM

CC1(C)C(O)OC(O)C1(C)C (centres undefined)
TGI [1]: > 100 µM | TGI [2]: > 100 µM | TGI [3]: > 100 µM | TGI [4]: > 100 µM | TGI [5]: > 100 µM | TGI [6]: > 100 µM | TGI [7]: > 100 µM | TGI [8]: > 100 µM | TGI [9]: > 100 µM | TGI [10]: > 100 µM | TGI [11]: > 100 µM | TGI [12]: > 100 µM | TGI [13]: > 100 µM | TGI [14]: > 100 µM | TGI [15]: > 100 µM | TGI [16]: > 100 µM | TGI [17]: > 100 µM | TGI [18]: > 100 µM | TGI [19]: > 100 µM | TGI [20]: > 100 µM | TGI [21]: > 100 µM | TGI [22]: > 100 µM | TGI [23]: > 100 µM | TGI [24]: > 100 µM | TGI [25]: > 100 µM | TGI [26]: > 100 µM | TGI [27]: > 100 µM | TGI [28]: > 100 µM | TGI [29]: > 100 µM | TGI [30]: > 100 µM | TGI [31]: > 100 µM | TGI [32]: > 100 µM | TGI [33]: > 100 µM | TGI [34]: > 100 µM | TGI [35]: > 100 µM | TGI [36]: > 100 µM | TGI [37]: > 100 µM | TGI [38]: 94.6 µM | TGI [39]: > 100 µM | TGI [40]: > 100 µM | TGI [41]: > 100 µM | TGI [42]: > 100 µM | TGI [43]: > 100 µM | TGI [44]: > 100 µM | TGI [45]: > 100 µM | TGI [46]: > 100 µM | TGI [47]: > 100 µM | TGI [48]: > 100 µM | TGI [49]: > 100 µM | TGI [50]: > 100 µM | TGI [51]: > 100 µM | TGI [52]: > 100 µM | TGI [53]: > 100 µM

C[PH+](C)C.C[PH+](C)C.[Au]
TGI [1]: 11.2 µM | TGI [2]: 47.8 µM | TGI [3]: 20.8 µM | TGI [4]: > 100 µM | TGI [5]: 12.3 µM | TGI [6]: 10.4 µM | TGI [7]: 68.7 µM | TGI [8]: 13.9 µM | TGI [9]: 24.9 µM | TGI [10]: 41.9 µM | TGI [11]: 24.5 µM | TGI [12]: 2.51 µM | TGI [13]: > 34.2 µM | TGI [54]: 15.2 µM | TGI [14]: 35.4 µM | TGI [15]: 32.8 µM | TGI [16]: 9.22 µM | TGI [17]: 8.29 µM | TGI [18]: > 100 µM | TGI [19]: 3.48 µM | TGI [20]: 21.2 µM | TGI [21]: > 90.2 µM | TGI [22]: 29.3 µM | TGI [23]: 15.6 µM | TGI [24]: 19 µM | TGI [25]: 10.6 µM | TGI [55]: 24.6 µM | TGI [26]: 15.2 µM | TGI [27]: 4.98 µM | TGI [28]: 18.2 µM | TGI [29]: 52.6 µM | GI50 [56]: 0.247 µM | TGI [56]: 0.771 µM | TGI [30]: 98 µM | TGI [31]: 10.9 µM | TGI [32]: 27.7 µM | TGI [57]: 11.2 µM | TGI [33]: 28.1 µM | TGI [34]: 6.21 µM | TGI [35]: > 56.7 µM | TGI [36]: 35.7 µM | TGI [37]: 10.1 µM | TGI [38]: 2.89 µM | TGI [39]: 7.8 µM | TGI [40]: > 60.6 µM | TGI [41]: 34.4 µM | TGI [42]: 30.1 µM | TGI [43]: 25.4 µM | TGI [44]: 18 µM | TGI [45]: 13.4 µM | TGI [46]: 7.45 µM | TGI [47]: 6.58 µM | TGI [48]: > 68.4 µM | TGI [49]: 13.1 µM | TGI [50]: 4.02 µM | TGI [51]: 54.8 µM | TGI [52]: 13.6 µM | TGI [53]: 15.7 µM
